Test results reported in US6878751B1, “Administration of resveratrol to treat inflammatory respiratory disorders” (Imperial College of Science Technology and Medicine, priority 2000, dated 2005).

What was measured:
[1] = system: Patients with asthma; test: Pulmonary resveratrol clinical evaluation in asthma (Example 4); format: in vivo, human; settings: inhaled, 4, 8 or 20 mg/day, about six months
Protocol: Resveratrol is evaluated clinically for efficacy in treating asthma when administered pulmonarily. The methods of the following references are generally used in the evaluation of asthmatic disease: Wohl et al. (2000) N. Engl. J. Med. 343(15):1113-4; Agertoft et al. (2000) N. Engl. J. Med 343(15):1064-9. Patients with asthma are treated once or more per day with inhalator delivered pulmonary administered doses of resveratrol. Patients are divided randomly and blindly into approximately equal groups that receive either 0 (placebo), 4, 8, or 20 mg/day resveratrol in inhaled doses of 0, 1, 2, or 5 mg administered 4 times daily for about six months. Patients are medically monitored for clinical symptoms of asthma throughout the study, including frequency and severity of acute asthma attacks. […] In addition exhaled nitric oxide (NO) and carbon monoxide (CO) levels may be measured at more frequent intervals, such as every other week. Forced expiratory volume (FEV) and forced inspiratory volume (FIV) are also evaluated to measure airway patency as a direct measure of clinical morbidity and to determine correlation the histopathologic and other indicators of clinical disease, such as exhaled NO Immunhistopathologic examination of lung tissue biopsy samples taken at the same intervals as the blood samples are also examined for histopathologic evidence of extent and histology of inflammation.

[2] = system: IL-8 release, 16HBE-16o^− cells; test: IL-8 release (ELISA) in IL-1β stimulated 16HBE-16o− cells; format: cell-based; settings: Homo sapiens, 1 ng/ml IL-1β, read-out: EC50 for inhibition of the release of IL-8
Protocol: The human airway epithelial cell line A549 may be employed to study resveratrol inhibition of the release of IL-8 (interleukin 8) and GM-CSF (granulocyte macrophage-colony stimulating factor) by a 1 ng/ml stimulation with IL-1β (interleukin 1β). A549 cells, BEAS-2B cells and 16HBE-16o^− cells were stimulated with 1 ng/ml levels of IL-1β in the presence of resveratrol.
Cells, including the A549 cells, were cultured in Dulbecco's modified Eagle's medium (DMEM) 10% (v/v) fetal calf serum (FCS), 100 μg/ml penicillin and 100 μg/ml streptomycin. IL-8 release was measured by commercially available ELISA kit (R&D Systems).

Oc1ccc(/C=C/c2cc(O)cc(O)c2)cc1 [Resveratrol, 3,5,4′-trihydroxystilbene] was tested, and the “efficacy in treating asthma” value [1] was “effective for treating asthma” and the EC50 [2] was 8.9 ± 3.5 µM.
